Results: US20060122101A1, “Drug for preventing, regulating or treating adhesion” (priority 2003, published 2006)
Values belong to the compound of their own block, whether it stands above or below them.

Assays:
human leukocyte elastase = human leukocyte elastase (Homo sapiens, UniProt P08246); settings: cited from earlier work
[1] = cited from earlier work
chymase = molecular target: T1, chymase (Homo sapiens, UniProt P23946); test: Chymase activity in blood vessel tissue of the living body after use during operation; assay type: in vivo; settings: 10 μM during the operation; for 4 weeks
T1 construct: the chymase activity in the blood vessel tissue of the living body; from tissue; host or cells: blood vessel tissue of the living body
T1 sequence (P23946 22-247): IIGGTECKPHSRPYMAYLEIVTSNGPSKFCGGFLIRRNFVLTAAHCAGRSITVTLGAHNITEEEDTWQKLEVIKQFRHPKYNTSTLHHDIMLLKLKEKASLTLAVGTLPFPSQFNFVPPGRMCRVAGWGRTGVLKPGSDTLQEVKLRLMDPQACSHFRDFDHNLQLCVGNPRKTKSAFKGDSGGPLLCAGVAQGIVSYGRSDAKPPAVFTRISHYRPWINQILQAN
Procedure: The medicament of the present invention allows at least one protease inhibitor to be administered in a substantially sufficient amount to permit epithelialization in the site of adhesion formation. […] The effective administration amount of chymase inhibitor (Suc-Val-Pro-L-Phe^P(OPh)2) can be selected in the range of 0.0001 to 100 mg per 1 kg of adult body weight, per one day. For example, it can be administered intravenously by an amount selected in the range from 0.0001 to 100 mg, preferably from 0.01 to 1 mg, and orally by an amount selected in the range from 0.1 to 100 mg, preferably from 0.1 to 10 mg. Furthermore, it can be intravenously applied by an amount in the range from 0.0001 to 1000 mg, preferably from 0.1 to 100 mg.

[2] = test system: chymotrypsin and chymotrypsin-like enzymes; settings: cited from earlier work
[3] = test system: Cardiac muscle adhesion models; test: Prevention of adhesion by oral administration in hamster cardiac muscle adhesion model; assay type: in vivo, Syrian hamsters; settings: 10 mg/kg orally once a day
Procedure: Syrian hamsters (SLC Co., Ltd.), 6 weeks of age (weighing 85-90 g), were subject to abdominal middle incision to scrape their hearts. Cardiac muscle adhesion models were prepared. Suc-Val-Pro-Phe^P(OPh)2 (10 mg/kg) (eight cases) or placebo (eight cases) was forcibly orally administered using a canal once a day from the 3rd day before the model preparation to the 14th day after the model preparation. The adhesion levels at the 14th day after the model preparation were compared to study. Adhesion scores are as follows. Student-t test was used to test a significant difference in adhesion core.
Adhesion level 0: A heart is easily taken out, and the heart exists independently from the circumference, as is similar to a normal heart.
Adhesion level 1: A heart is observed to adhere to the circumferential tissue at one site by a thin film, but the adhesion site can be simply freed to release the heart.
Adhesion level 2: A heart is observed to adhere to the circumferential tissue at a few sites, but the adhesion sites can be freed by a traction force to release the heart.
Adhesion level 3: A heart is firmly adhered, but is distinguishable from, to the circumferential tissue at several sites, and it is hard to release the heart without a strong traction force.
Adhesion level 4: Excessive cell growth and fibrosis occur around a heart, and the heart is observed to adhere to the circumferential tissue. The heart is so firmly adhered to the circumferential tissue that the heart is difficult to release even by a peeling traction force.

[4] = 3rd day before to 14th day after model preparation, eight cases

human leukocyte elastase, sequence (P08246 30-267): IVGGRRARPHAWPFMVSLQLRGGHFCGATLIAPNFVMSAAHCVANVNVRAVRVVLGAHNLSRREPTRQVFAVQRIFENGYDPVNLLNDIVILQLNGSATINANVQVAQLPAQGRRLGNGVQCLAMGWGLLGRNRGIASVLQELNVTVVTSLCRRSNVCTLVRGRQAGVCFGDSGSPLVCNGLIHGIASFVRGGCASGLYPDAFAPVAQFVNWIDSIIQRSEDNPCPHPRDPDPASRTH

Compound: Meo-Suc-Ala-Ala-Pro-Val^P(OPh)2
inhibitor potency with human leukocyte elastase (human leukocyte elastase): relatively potent inhibitors

suppression of chymase activity in the blood vessel tissue (chymase): suppress significantly
Compound: CC(C)C(NC(=O)CCC(=O)O)C(=O)N1CCCC1C(=O)NC(Cc1ccccc1)P(=O)(Oc1ccccc1)Oc1ccccc1 [Suc-Val-Pro-L-Phe^P(OPh)2]
half-life in human blood plasma [1]: about 20 hours

Compound: Boc-Val-Pro-Val^P(OPh)2
inhibitor potency with human leukocyte elastase (human leukocyte elastase): relatively potent inhibitors

Compound: Suc-Val-Pro-Phe^P(OPh)2
half-life in human blood plasma [1]: about 20 hours
inhibitor potency for chymotrypsin and chymotrypsin-like enzymes [2]: relatively potent inhibitor
cases ranked as adhesion level 0 [3, 4]: 75%
cases ranked as adhesion level 2 [3, 4]: 12.5%
cases ranked as adhesion level 4 [3, 4]: 12.5%
adhesion level versus placebo group ([3]; 14th day, Student-t test): fell down significantly in adhesion level
